Structures can show the parent of a compound that is named as a salt.
System: nerve-ligation induced pain (rat model of spinal nerve ligation, SNL)
Assay: Neuropathic pain model (Chung model): rat spinal nerve ligation, mechanical allodynia by Von Frey hairs
Type: in vivo
Conditions: for reversed pain in the Chung model: 1 mg/kg, time not given
Protocol: [drawing 23] and all racemic mixtures of the two optical isomers are also included. Analgesic Activity in the Neuropathic Pain Model (the Chung Model)
Several of the compounds disclosed herein were tested in the rat model of spinal nerve ligation (SNL) which involves a traumatic partial nerve injury, involving tight ligation of the L5 and L6 spinal nerves (Kim and Chung, 1992). Pain, including mechanical allodynia and thermal hyperalgesia, persists in the absence of ongoing tissue injury for more than 2 months following the surgery. The ability of the drug to alleviate the mechanical allodynia was assessed using a series of Von Frey hairs applied to the mid-plantar area of the ipsilateral hind paw before and after drug administration. The paw withdrawal threshold was determined using a standard up-down testing method (Dixon, 1980) and expressed relative to the paw withdrawal threshold in uninjured rats.
• Kim S H, Chung J M. An experimental model for peripheral neuropathy produced by segmental spinal nerve ligation in the rat, Pain 1992; 50 (3): 355-63. • Dixon W J. Efficient analysis of experimental observations. Annu Rev Pharmacol Toxicol 1980; 20: 441-62.

Row | SMILES | reversed pain in the Chung model | Percent pain reversal at time in min (dose 0.3 mg/kg, 15 min) | Percent pain reversal at time in min (dose 0.3 mg/kg, 30 min) | Percent pain reversal at time in min (dose 0.3 mg/kg, 60 min) | Percent pain reversal at time in min (dose 1 mg/kg, 15 min) | Percent pain reversal at time in min (dose 1 mg/kg, 30 min) | Percent pain reversal at time in min (dose 1 mg/kg, 60 min) | Percent pain reversal at time in min (dose 0.1 mg/kg, 15 min) | Percent pain reversal at time in min (dose 0.1 mg/kg, 30 min) | Percent pain reversal at time in min (dose 0.1 mg/kg, 60 min)
1 | N[C@@H](C(=O)N1CCCC1)[C@@H](O)c1ccc(F)cc1 (racemic) [Compound 1, (±)-threo-2-Amino-3-(4-fluorophenyl)-3-hydroxy-1-(pyrrolidin-1-yl)propan-1-one hydrochloride] | 64% | 17% | 29% | 52% | 28% | 52% | 64% | – | – | –
2 | N[C@@H](C(=O)N1CCCC1)[C@@H](O)c1ccc(I)cc1 (racemic) [reference compound] | – | 4.3% | 5.8% | 7.3% | – | – | – | – | – | –
3 | N[C@@H](C(=O)N1CCCC1)[C@@H](O)c1ccc(Cl)cc1 (racemic) [reference compound] | – | 4.8% | 7.5% | 8.6% | – | – | – | – | – | –
4 | N[C@@H](C(=O)N1CCCC1)[C@@H](O)c1ccc(F)cc1 [Compound 3, (−)-threo-2-Amino-3-(4-fluorophenyl)-3-hydroxy-1-(pyrrolidin-1-yl)propan-1-one hydrochloride] | 86% | 26.7% | 53.6% | 75.5% | 57.2% | 73.5% | 86.2% | 1.2% | 20.2% | 43.2%

From patent US8168631B2, “3-(4-fluorophenyl)-3-hydroxy-2-amino-propionic acid amides and related compounds having analgesic activity” (Allergan, Inc., priority 2008, dated 2012)
